target: URAT-1 transporter (Homo sapiens (Human), UniProt Q96S37); assay: URAT-1 inhibitor activity: [14C]-uric acid uptake in CHO-URAT1(L)GFP#8 (CHO#8) cells, scintillation proximity; format: cell-based; conditions: inhibition of [14C]-uric acid (30 nM) uptake into CHO#8 cells; compound 0 to 10 μM; 4 parameter logistic fit
How it was run: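 CHO cells stably expressing human URAT1 long isoform–eGFP fusion, pre-incubated 1 h in chloride-containing buffer pH 7.4, then given 30 nM [14C]-uric acid with compound (0–10 μM, 0.25% DMSO) in chloride-free gluconate buffer pH 7.4. Uptake measured by scintillation proximity on Cytostar plates.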

Sequence of URAT-1 transporter (Q96S37 other isoform, or with tags, fused parts or gaps): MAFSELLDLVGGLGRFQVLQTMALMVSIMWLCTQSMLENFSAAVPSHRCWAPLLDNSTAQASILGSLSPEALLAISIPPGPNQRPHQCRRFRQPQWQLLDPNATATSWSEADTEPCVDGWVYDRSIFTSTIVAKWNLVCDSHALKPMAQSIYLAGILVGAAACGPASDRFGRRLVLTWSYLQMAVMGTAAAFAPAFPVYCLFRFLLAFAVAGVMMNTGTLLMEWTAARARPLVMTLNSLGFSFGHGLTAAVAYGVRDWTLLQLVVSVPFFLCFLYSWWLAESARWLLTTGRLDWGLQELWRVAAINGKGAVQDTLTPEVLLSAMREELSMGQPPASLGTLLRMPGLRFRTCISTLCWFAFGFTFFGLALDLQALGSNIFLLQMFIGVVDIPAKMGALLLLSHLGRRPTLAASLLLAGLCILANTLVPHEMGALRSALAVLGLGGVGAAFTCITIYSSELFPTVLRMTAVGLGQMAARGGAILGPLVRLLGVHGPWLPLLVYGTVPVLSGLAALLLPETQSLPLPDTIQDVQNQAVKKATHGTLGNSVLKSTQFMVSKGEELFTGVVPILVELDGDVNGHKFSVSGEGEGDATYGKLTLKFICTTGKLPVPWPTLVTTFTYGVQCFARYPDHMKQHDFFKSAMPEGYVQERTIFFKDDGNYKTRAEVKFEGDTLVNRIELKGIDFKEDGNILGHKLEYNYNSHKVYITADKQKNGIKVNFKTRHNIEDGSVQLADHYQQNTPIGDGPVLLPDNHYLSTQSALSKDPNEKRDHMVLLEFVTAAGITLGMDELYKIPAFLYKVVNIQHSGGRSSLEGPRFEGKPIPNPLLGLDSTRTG

| SMILES | IC50 [µM] |
| --- | --- |
| COc1cc(F)c(F)cc1Oc1ccc(S(=O)(=O)Nc2ccc(F)cn2)cc1C#N [Example 144, 3-cyano-4-(4,5-difluoro-2-methoxyphenoxy)-N-(5-fluoropyridin-2-yl)benzenesulfonamide] | 0.04 |
| CSc1ccccc1Oc1ccc(S(=O)(=O)Nc2ccc(F)cn2)cc1C#N [Example 146, 3-cyano-N-(5-fluoropyridin-2-yl)-4-[2-(methylsulfanyl)phenoxy]benzenesulfonamide] | 0.506 |
| Cc1cc(Oc2ccc(S(=O)(=O)Nc3ccc(F)cn3)cc2C#N)cc(C)c1Cl [Example 149, 4-(4-chloro-3,5-dimethylphenoxy)-3-cyano-N-(5-fluoropyridin-2-yl)benzenesulfonamide] | 0.095 |
| Cc1cc(C)cc(Oc2ccc(S(=O)(=O)Nc3ccc(F)cn3)cc2C#N)c1 [Example 150, 3-cyano-4-(3,5-dimethylphenoxy)-N-(5-fluoropyridin-2-yl)benzenesulfonamide] | 0.329 |
| CCOc1ccccc1Oc1ccc(S(=O)(=O)Nc2ccc(F)cn2)cc1C#N [Example 151, 3-cyano-4-(2-ethoxyphenoxy)-N-(5-fluoropyridin-2-yl)benzenesulfonamide] | > 10 |
| Cc1cccc(C)c1Oc1ccc(S(=O)(=O)Nc2ccc(F)cn2)cc1C#N [Example 152, 3-cyano-4-(2,6-dimethylphenoxy)-N-(5-fluoropyridin-2-yl)benzenesulfonamide] | 0.05 |
| CCOc1ccc(Oc2ccc(S(=O)(=O)Nc3ccc(F)cn3)cc2C#N)cc1 [Example 153, 3-cyano-4-(4-ethoxyphenoxy)-N-(5-fluoropyridin-2-yl)benzenesulfonamide] | > 10 |
| CCOc1ncccc1Oc1ccc(S(=O)(=O)Nc2ccc(F)cn2)cc1C#N [Example 154, 3-cyano-4-[(2-ethoxypyridin-3-yl)oxy]-N-(5-fluoropyridin-2-yl)benzenesulfonamide] | > 10 |
| CC(C)Oc1ccc(F)cc1Oc1ccc(S(=O)(=O)Nc2ccc(F)cn2)cc1C#N [Example 156, 3-cyano-4-[5-fluoro-2-(propan-2-yloxy)phenoxy]-N-(5-fluoropyridin-2-yl)benzenesulfonamide] | > 10 |
| N#Cc1cc(S(=O)(=O)Nc2ccc(F)cn2)ccc1Oc1ccc(F)c(F)c1F [Example 157, 3-cyano-N-(5-fluoropyridin-2-yl)-4-(2,3,4-trifluorophenoxy)benzenesulfonamide] | 0.051 |
| Cc1cc(Cl)cc(Oc2ccc(S(=O)(=O)Nc3ccc(F)cn3)cc2C#N)c1C [Example 159, 4-(5-chloro-2,3-dimethylphenoxy)-3-cyano-N-(5-fluoropyridin-2-yl)benzenesulfonamide] | 0.514 |
| CC(C)(C)c1cc(Oc2ccc(S(=O)(=O)Nc3ccc(F)cn3)cc2C#N)ccc1C#N [Example 161, 4-(3-tert-butyl-4-cyanophenoxy)-3-cyano-N-(5-fluoropyridin-2-yl)benzenesulfonamide] | > 10 |
| N#Cc1cc(S(=O)(=O)Nc2ccc(F)cn2)ccc1Oc1ccc(Br)cc1 [Example 163, 4-(4-bromophenoxy)-3-cyano-N-(5-fluoropyridin-2-yl)benzenesulfonamide] | > 10 |
| Cc1ccc(Cl)c(C)c1Oc1ccc(S(=O)(=O)Nc2ccc(F)cn2)cc1C#N [Example 169, 4-(3-chloro-2,6-dimethylphenoxy)-3-cyano-N-(5-fluoropyridin-2-yl)benzenesulfonamide] | 0.134 |
| Cc1cc(Oc2ccc(S(=O)(=O)Nc3ccc(F)cn3)cc2C#N)cc(Cl)c1C [Example 171, 4-(3-chloro-4,5-dimethylphenoxy)-3-cyano-N-(5-fluoropyridin-2-yl)benzenesulfonamide] | 0.215 |

The remaining lines, values ahead:

| IC50 [µM] | SMILES |
| --- | --- |
| 0.075 | COc1ccccc1Oc1ccc(S(=O)(=O)Nc2ccc(F)cn2)cc1C#N [Example 142, 3-cyano-N-(5-fluoropyridin-2-yl)-4-(2-methoxyphenoxy)benzenesulfonamide] |
| 0.079 | COc1cc(Cl)ccc1Oc1ccc(S(=O)(=O)Nc2ccc(F)cn2)cc1C#N [Example 143, 4-(4-chloro-2-methoxyphenoxy)-3-cyano-N-(5-fluoropyridin-2-yl)benzenesulfonamide] |
| 0.096 | Cc1cc(F)ccc1Oc1ccc(S(=O)(=O)Nc2ccc(F)cn2)cc1C#N [Example 145, 3-cyano-4-(4-fluoro-2-methylphenoxy)-N-(5-fluoropyridin-2-yl)benzenesulfonamide] |
| 0.187 | Cc1c(F)ccc(Oc2ccc(S(=O)(=O)Nc3ccc(F)cn3)cc2C#N)c1Cl [Example 147, 4-(2-chloro-4-fluoro-3-methylphenoxy)-3-cyano-N-(5-fluoropyridin-2-yl)benzenesulfonamide] |
| 0.053 | COc1ccc(Oc2ccc(S(=O)(=O)Nc3ccc(F)cn3)cc2C#N)cc1Cl [Example 148, 4-(3-chloro-4-methoxyphenoxy)-3-cyano-N-(5-fluoropyridin-2-yl)benzenesulfonamide] |
| 0.191 | COc1ccc(C)cc1Oc1ccc(S(=O)(=O)Nc2ccc(F)cn2)cc1C#N [Example 155, 3-cyano-N-(5-fluoropyridin-2-yl)-4-(2-methoxy-5-methylphenoxy)benzenesulfonamide] |
| 0.122 | Cc1ccc(C)c(Oc2ccc(S(=O)(=O)Nc3ccc(F)cn3)cc2C#N)c1 [Example 158, 3-cyano-4-(2,5-dimethylphenoxy)-N-(5-fluoropyridin-2-yl)benzenesulfonamide] |
| > 10 | COc1cc(F)ccc1Oc1ccc(S(=O)(=O)Nc2ccc(F)cn2)cc1C#N [Example 160, 3-cyano-4-(4-fluoro-2-methoxyphenoxy)-N-(5-fluoropyridin-2-yl)benzenesulfonamide] |
| 0.125 | COc1cc(Cl)cc(Oc2ccc(S(=O)(=O)Nc3ccc(F)cn3)cc2C#N)c1 [Example 162, 4-(3-chloro-5-methoxyphenoxy)-3-cyano-N-(5-fluoropyridin-2-yl)benzenesulfonamide] |
| 6.16 | CC(C)c1cc(Oc2ccc(S(=O)(=O)Nc3ccc(F)cn3)cc2C#N)ccc1Cl [Example 164, 4-[4-chloro-3-(propan-2-yl)phenoxy]-3-cyano-N-(5-fluoropyridin-2-yl)benzenesulfonamide] |
| 0.139 | COc1c(F)ccc(Oc2ccc(S(=O)(=O)Nc3ccc(F)cn3)cc2C#N)c1C [Example 165, 3-cyano-4-(4-fluoro-3-methoxy-2-methylphenoxy)-N-(5-fluoropyridin-2-yl)benzenesulfonamide] |
| 0.116 | COc1ccc(F)c(Oc2ccc(S(=O)(=O)Nc3ccc(F)cn3)cc2C#N)c1 [Example 166, 3-cyano-4-(2-fluoro-5-methoxyphenoxy)-N-(5-fluoropyridin-2-yl)benzenesulfonamide] |
| 0.05 | N#Cc1cc(S(=O)(=O)Nc2ccc(F)cn2)ccc1Oc1ccc(F)c(F)c1Cl [Example 167, 4-(2-chloro-3,4-difluorophenoxy)-3-cyano-N-(5-fluoropyridin-2-yl)benzenesulfonamide] |
| 0.612 | COc1ccc(Oc2ccc(S(=O)(=O)Nc3ccc(F)cn3)cc2C#N)c(Cl)c1 [Example 168, 4-(2-chloro-4-methoxyphenoxy)-3-cyano-N-(5-fluoropyridin-2-yl)benzenesulfonamide] |
| 0.57 | N#Cc1cc(S(=O)(=O)Nc2ccc(F)cn2)ccc1Oc1cc(Cl)ccc1Cl [Example 170, 3-cyano-4-(2,5-dichlorophenoxy)-N-(5-fluoropyridin-2-yl)benzenesulfonamide] |

From US9067922B2, “Chemical compounds” (Pfizer Limited, priority 2013, dated 2015)
